{"source": "ChEMBL document CHEMBL5518171", "about": "“Curcumin hybrid molecules for the treatment of Alzheimer's disease: Structure and pharmacological activities” (Eur J Med Chem, 2024)", "key": {"SH-SY5Y": {"test_system": "SH-SY5Y", "assay": "Antioxidant activity in human SH-SY5Y cells assessed as increase in intracellular GSH level at 10 uM incubated for 24 hrs by […] staining based fluorescence analysis", "format": "functional"}, "[1]": {"assay": "Antioxidant activity assessed as DPPH radical scavenging activity st 80 uM incubated for 1 hr by DPPH assay", "format": "functional"}, "[2]": {"assay": "Antioxidant activity assessed as DPPH radical scavenging activity at 80 uM incubated for 1 hr by DPPH assay relative to control", "format": "functional"}, "[3]": {"assay": "Neuroprotective activity against human MC65 cells assessed as increase in cell viability incubated for 72 hrs in absence of tetracycline by MTT assay", "format": "functional, cell-based", "settings": "MC65, 72 h"}, "[4]": {"assay": "Antioxidant activity assessed as DPPH radical scavenging activity measured after 30 mins by UV-visible spectrophotometric analysis", "format": "functional"}, "N2a": {"test_system": "N2a", "assay": "Antiproliferative activity against mouse Neuro2a cells assessed as reduction in cell viability incubated for 72 hrs by MTT assay", "format": "functional, cell-based"}, "[5]": {"biological_target": "T1, Amine oxidase [flavin-containing] B (Homo sapiens, UniProt P27338)", "T1 sequence (P27338 whole entry)": "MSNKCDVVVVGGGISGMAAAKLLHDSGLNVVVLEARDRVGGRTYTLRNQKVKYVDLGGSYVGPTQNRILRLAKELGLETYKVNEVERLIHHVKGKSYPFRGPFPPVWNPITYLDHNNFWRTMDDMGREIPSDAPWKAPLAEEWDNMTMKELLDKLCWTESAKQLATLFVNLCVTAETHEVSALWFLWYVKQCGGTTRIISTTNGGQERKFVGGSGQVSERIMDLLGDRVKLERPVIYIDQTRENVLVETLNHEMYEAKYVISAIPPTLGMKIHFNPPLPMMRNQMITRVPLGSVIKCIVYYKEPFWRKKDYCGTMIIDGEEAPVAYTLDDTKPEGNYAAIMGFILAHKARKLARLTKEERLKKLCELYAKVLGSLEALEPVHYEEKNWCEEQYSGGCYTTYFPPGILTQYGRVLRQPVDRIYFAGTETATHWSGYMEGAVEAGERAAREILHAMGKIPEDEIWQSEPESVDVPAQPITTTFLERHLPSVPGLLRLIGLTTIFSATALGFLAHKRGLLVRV", "assay": "Inhibition of human MAO-B using p-tyramine as substrate at 100 uM incubated for 15 mins by Amplex red and horseradish peroxidase based fluorescence assay", "settings": "0.25 h"}, "[6]": {"biological_target": "T2, Amine oxidase [flavin-containing] A (Homo sapiens, UniProt P21397)", "T2 sequence (P21397 whole entry)": "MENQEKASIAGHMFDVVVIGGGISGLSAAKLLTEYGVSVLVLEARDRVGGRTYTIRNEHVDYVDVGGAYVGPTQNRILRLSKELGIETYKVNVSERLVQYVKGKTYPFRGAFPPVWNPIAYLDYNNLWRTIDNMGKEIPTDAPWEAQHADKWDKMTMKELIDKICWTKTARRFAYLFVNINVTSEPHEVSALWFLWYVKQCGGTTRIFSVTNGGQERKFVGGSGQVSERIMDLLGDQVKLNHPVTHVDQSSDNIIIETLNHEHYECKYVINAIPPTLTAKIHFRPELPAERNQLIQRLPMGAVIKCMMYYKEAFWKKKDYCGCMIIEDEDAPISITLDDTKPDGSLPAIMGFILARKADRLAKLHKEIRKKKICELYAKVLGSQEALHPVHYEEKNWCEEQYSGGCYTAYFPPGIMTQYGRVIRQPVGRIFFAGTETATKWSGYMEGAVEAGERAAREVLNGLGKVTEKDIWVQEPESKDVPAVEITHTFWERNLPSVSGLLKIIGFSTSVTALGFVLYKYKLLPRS", "assay": "Inhibition of human MAO-A using p-tyramine as substrate at 100 uM incubated for 15 mins by Amplex red and horseradish peroxidase based fluorescence assay relative to control", "settings": "0.25 h"}, "[7]": {"biological_target": "Cholinesterase (Equus caballus) (UniProt P81908)", "sequence (P81908 whole entry)": "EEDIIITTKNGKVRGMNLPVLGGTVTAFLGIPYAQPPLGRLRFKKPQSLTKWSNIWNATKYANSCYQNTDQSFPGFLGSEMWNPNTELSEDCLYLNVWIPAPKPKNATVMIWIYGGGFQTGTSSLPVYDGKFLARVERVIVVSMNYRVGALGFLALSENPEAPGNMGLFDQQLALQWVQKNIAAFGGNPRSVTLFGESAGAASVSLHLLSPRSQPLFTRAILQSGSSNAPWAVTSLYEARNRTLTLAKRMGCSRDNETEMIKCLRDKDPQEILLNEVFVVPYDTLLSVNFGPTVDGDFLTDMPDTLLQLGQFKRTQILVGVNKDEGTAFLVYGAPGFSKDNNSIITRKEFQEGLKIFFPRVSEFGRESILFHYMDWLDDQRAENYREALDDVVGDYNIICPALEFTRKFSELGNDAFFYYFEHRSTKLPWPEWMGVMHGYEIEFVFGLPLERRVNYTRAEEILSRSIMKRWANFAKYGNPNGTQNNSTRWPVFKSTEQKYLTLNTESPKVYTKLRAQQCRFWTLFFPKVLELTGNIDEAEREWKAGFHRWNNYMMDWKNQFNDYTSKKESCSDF", "assay": "Inhibition of equine BChE at 100 uM by Ellman's method relative to control"}, "[8]": {"assay": "Antioxidant activity assessed as ROS scavenging activity", "format": "functional"}, "Cholinesterase": {"biological_target": "Cholinesterase (Equus caballus, UniProt P81908)", "sequence (P81908 whole entry)": "as above", "assay": "Inhibition of equine BChE using BTCh as substrate incubated for 5 mins by Ellmans method"}, "Acetylcholinesterase": {"biological_target": "Acetylcholinesterase (Electrophorus electricus, UniProt O42275)", "sequence (O42275 whole entry)": "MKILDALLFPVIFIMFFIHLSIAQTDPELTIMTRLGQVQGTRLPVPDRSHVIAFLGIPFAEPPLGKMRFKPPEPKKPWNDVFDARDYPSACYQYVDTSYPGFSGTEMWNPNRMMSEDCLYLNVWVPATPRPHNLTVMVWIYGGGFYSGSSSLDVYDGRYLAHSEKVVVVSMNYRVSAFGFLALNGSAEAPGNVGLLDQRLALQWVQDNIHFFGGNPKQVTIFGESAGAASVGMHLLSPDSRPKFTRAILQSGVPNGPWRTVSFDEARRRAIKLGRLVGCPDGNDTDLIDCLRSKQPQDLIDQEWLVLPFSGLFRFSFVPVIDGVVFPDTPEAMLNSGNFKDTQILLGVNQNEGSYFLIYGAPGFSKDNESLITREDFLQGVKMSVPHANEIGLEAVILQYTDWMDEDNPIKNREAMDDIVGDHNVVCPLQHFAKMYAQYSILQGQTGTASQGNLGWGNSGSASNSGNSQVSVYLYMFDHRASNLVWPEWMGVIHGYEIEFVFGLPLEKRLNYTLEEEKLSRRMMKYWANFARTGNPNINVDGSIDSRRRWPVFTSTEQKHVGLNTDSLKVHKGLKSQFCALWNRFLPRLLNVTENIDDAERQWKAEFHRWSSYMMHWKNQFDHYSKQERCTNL", "description": "Inhibition of Electric eel AChE using acetylthiocholine iodide as substrate incubated for 15 mins by Ellman's method"}, "[9]": {"assay": "Antioxidant activity assessed as DPPH radical scavenging activity by spectrophotometric analysis", "format": "functional"}}}
{"smiles": "O=C(/C=C/c1ccc(O)c(O)c1)NN=C1CCN(Cc2ccccc2)CC1", "values": [{"measurement": "Activity", "setting": "SH-SY5Y", "value": 33, "unit": "%"}, {"measurement": "Activity", "setting": "[1]", "value": 45, "unit": "%"}, {"measurement": "Activity", "setting": "[2]", "value": 45, "unit": "%"}]}
{"smiles": "COc1ccc2[nH]cc(CCNC(=O)CC(=O)/C=C/c3ccc(O)cc3)c2c1", "values": [{"measurement": "EC50", "setting": "[3]", "value": 23.1, "unit": "nM"}]}
{"smiles": "COc1ccc2[nH]cc(CCNC(=O)CC(=O)/C=C/c3ccc(O)c(OC)c3)c2c1", "values": [{"measurement": "EC50", "setting": "[3]", "value": 134, "unit": "nM"}]}
{"smiles": "CCCCN1C(=O)/C(=C(O)/C=C/c2cc(OC)c(OC)c(OC)c2)C(C(=O)OC)=C1C", "values": [{"measurement": "Activity", "setting": "[4]", "value": 10.8, "unit": "%"}]}
{"smiles": "COc1ccc(/C=C/C(=O)CCCCN2CC[C@@]34C=C[C@H](O)C[C@@H]3Oc3c(OC)ccc(c34)C2)cc1", "values": [{"measurement": "IC50", "setting": "N2a", "value": 50000, "unit": "nM"}]}
{"smiles": "O=C(/C=C/c1cc(O)c(O)cc1O)CC(=O)/C=C/c1cc2ccc(O)c(O)c2oc1=O", "values": [{"measurement": "inhibition at 100 µM", "setting": "[5]", "value": 45.8, "unit": "%"}, {"measurement": "inhibition at 100 µM", "setting": "[6]", "value": 60.9, "unit": "%"}, {"measurement": "inhibition", "setting": "[7]", "value": 43.3, "unit": "%"}]}
{"smiles": "CCCCN1C(=O)/C(=C(O)/C=C/c2cc(OC)c(OC)c(OC)c2)C(C(=O)OCC)=C1C", "values": [{"measurement": "Activity", "setting": "[8]", "value": 61, "unit": "%"}]}
{"smiles": "COc1cc(/C=C/C(=O)NN=C2CCN(Cc3ccccc3)CC2)ccc1O", "values": [{"measurement": "Activity", "setting": "SH-SY5Y", "value": 34, "unit": "%"}, {"measurement": "Activity", "setting": "[1]", "value": 53.4, "unit": "%"}, {"measurement": "Activity", "setting": "[2]", "value": 53.4, "unit": "%"}]}
{"smiles": "COc1cc(/C=C/C(=O)OCCCCCN(C)Cc2cccc(OC(=O)N(C)C)c2)ccc1O", "values": [{"measurement": "IC50", "setting": "Cholinesterase", "value": 590, "unit": "nM"}, {"measurement": "IC50", "setting": "Acetylcholinesterase", "value": 19.7, "unit": "nM"}]}
{"smiles": "CCCCN1C(=O)/C(=C(O)/C=C/c2ccc(O)c(OC)c2)C(C(=O)OC)=C1C", "values": [{"measurement": "Activity", "setting": "[9]", "value": 8.87, "unit": "%"}]}
